Results taken from patent publication US11998610B2, “Conjugates and methods of using the same” (Flagship Pioneering Innovations V, Inc., priority 2018, dated 2024).
Non-standard residues stand in square brackets, D forms with d. Residues, ends and D or L forms follow the SMILES beside them. *: point of attachment. Myristoyl = CCCCCCCCCCCCCC(=O)*; Octanoyl = CCCCCCCC(=O)*

Tests used:
E. coli BL21(DE3) = assay: Cell-based assay with ClbP with LCMS, ClbP negative strain; settings: 10 μM compound, 37° C., 20 h
How it was run: (§1)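 Compound (10 μM final) incubated 20 h at 37° C, aerobically, with 1:40-diluted overnight cultures of ClbP-positive E. coli or negative BL21(DE3), in duplicate, alongside uninoculated LB. Remaining parent quantified by LC-MS/MS (MRM) after acetonitrile quench, expressed as percent of media-alone.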

WT ClbP = assay: Assay with purified ClbP protein (LCMS); assay type: biochemical, E. coli; settings: 20 μM WT ClbP, room temperature, 24 h
Protocol: This example is representative of the method described in Example 91 the soluble peptidase domain (amino acids 38 to 375) of ClbP or the catalytically inert mutant S95A was cloned into pET28a using previously defined boundaries as a starting point (Brotherton, J. Am. Chem. Soc., 135:3359-3362, 2013).
WT ClbP or S95A ClbP was isolated as an N-terminally tagged HiS6-SUMO1-fusion protein from […] using E. coli BL21(DE3)RIPL to express the protein. The cells were lysed in 30 mM Tris pH 8.0, 300 mM NaCl, 10% (v/v) glycerol, benzonase (Sigma-Millipore), lysozyme, B-per (ThermoFisher), and Y-per (ThermoFisher). The lysate was clarified via centrifugation (13,000 g, 20 min), and the supernatant was incubated with HiBond Ni-NTA agarose (5 mL). The resin was subsequently washed with wash buffer (30 mM Tris pH 7.5, 250 mM NaCl, 10 mM imidazole, 3% (v/v) glycerol, and 2 mM TCEP). The resin was incubated at 30° C. for 1 h with 1.4 mg ULP1 protease. The resin was then washed with an additional fraction of wash buffer. Centrifuge filtration was used to concentrate the protein, and the concentrated protein was subsequently applied to a 16/600 Superdex 200 size exclusion column with an isocratic elution of 25 mM HEPES, 25 mM Tris pH 7.4, 325 mM NaCl, 10 mM KCl and 3% (v/v) glycerol at a flow rate of […]. The fractions containing the protein were determined by SDS-PAGE, combined, and concentrated by centrifuge filtration. 3 mM TCEP was added to the concentrated protein, which was then aliquoted, flash frozen in liquid N2, and stored at −80° C.
This example is representative of the method described in Example D, ClbP was incubated with test compounds in an in vitro assay. In a typical assay, 0, 1, or 20 μM purified WT or S95A ClbP was incubated with 100 or 500 μM compound in reaction buffer (50 mM Tris-HCl pH 7.5, 37.5 mM NaCl) at room temperature for 24 h. The total volume of this reaction was 150 μL.
After 24 h, 2 volumes of acetonitrile (300 μL) were added to the reaction to quench the solution.
The reaction was centrifuged (4,000 g, 15 min), and then the supernatant was analyzed by LCMS. 5 μL of the supernatant was injected onto an Acquity UPLC BEH C18 1.7 μm 2.1×100 column. Buffer A was 0.1% (v/v) formic acid in water and buffer B was 0.1% (v/v) formic acid in acetonitrile. The flow rate was 0.5 mL/min. The initial % B was 10, which was held for 30 s then ramped up to 90% B over 3 min, held at 90% B for 1 min, ramped down to 10% B over 15 s, and then held at 10% B for 15 s. The UV-Vis spectrum from 210-400 nm was monitored with 3.6 nm resolution. Positive and negative mode ESI were monitored from 100-1000 m/z with a 20 V cone voltage at 5 Hz sampling frequency in centroid collection.
The relative starting material remaining in the WT ClbP reaction was determined by LCMS and then compared to the residual starting material in the no-enzyme and catalytically inert enzyme (S95A ClbP) reactions. In an ideal case, the amount of residual starting material in the WT ClbP reaction was <25% of the amount in the S95A ClbP and no-enzyme conditions. In an acceptable case, the amount of residual starting material in the WT ClbP reaction was 25-75% of the amount in the S95A ClbP and no-enzyme conditions. In a non-preferred case, the amount of residual starting material in the WT ClbP reaction was >75% of the amount in the S95A ClbP and no-enzyme conditions.
Formation of the anticipated product was likewise quantified by LCMS analysis and confirmed by coelution with an external product standard. In an ideal case, the amount of product formed in the WT ClbP reaction corresponded to >75% of the theoretical maximum. In an acceptable case, the amount of product formed in the WT ClbP reaction corresponded to 25-75% of the theoretical maximum. In a non-preferred case, the amount of product formed in the WT ClbP reaction corresponded to <25% of the theoretical maximum.

[1] = tested on: E. coli CFT073 ATCC 700928 and/or E. coli Nissle 1917; assay: Cell-based assay with ClbP with LCMS, ClbP positive strain; settings: for % Remaining in ClbP Positve Relative to Media-Only: ClbP-encoding E. coli, 10 μM compound, 37° C., 20 h; for Difference between the ClbP Positive and ClbP Negative release profiles: conclusion from Table 4
How it was run: as §1

Structure (SMILES)	% Remaining in ClbP Negative Relative to Media-Only (E. coli BL21(DE3))	Status (compound remaining in WT ClbP reaction relative to no-enzyme control) (WT ClbP; 500 μM compound)	% Remaining in ClbP Positve Relative to Media-Only [1]	Status (compound remaining in WT ClbP reaction relative to no-enzyme control) (WT ClbP; 100 μM compound)	Difference between the ClbP Positive and ClbP Negative release profiles [1]
CCCCCCCCCCCCCC(=O)N[C@H](CC(N)=O)C(=O)N[C@@H](C)C(=O)OC [Example 1, Methyl tetradecanoyl-D-asparaginyl-L-alaninate] (Myristoyl-[dN]-Ala-OMe)	+ (between 25-75% compound remaining in the 20 μM WT ClbP reaction relative to the no-enzyme control)	− (>75% compound remaining in the 20 μM WT ClbP reaction relative to the no-enzyme control)	+ (between 25-75% compound remaining in the 20 μM WT ClbP reaction relative to the no-enzyme control)	–	–
CCCCCCCC(=O)N[C@H](CC(N)=O)C(=O)N[C@@H](C)C(=O)OC [Example 2, Methyl octanoyl-D-asparaginyl-L-alaninate] (Octanoyl-[dN]-Ala-OMe)	+ (between 25-75% compound remaining in the 20 μM WT ClbP reaction relative to the no-enzyme control)	–	++ (<25% compound remaining in the 20 μM WT ClbP reaction relative to the control)	++ (<25% compound remaining in the 20 μM WT ClbP reaction relative to the control)	–
CCCCCCCC(=O)N[C@@H](CC(N)=O)C(=O)N[C@@H](C)C(=O)OC [Example 4, Methyl octanoyl-L-asparaginyl-L-alaninate] (Octanoyl-Asn-Ala-OMe)	++ (<25% compound remaining in the 20 μM WT ClbP reaction relative to the control)	− (>75% compound remaining in the 20 μM WT ClbP reaction relative to the no-enzyme control)	++ (<25% compound remaining in the 20 μM WT ClbP reaction relative to the control)	–	–
CCCCCCCC(=O)N[C@H](CC(N)=O)C(=O)N[C@H](C)C(=O)OC [Example 5, Methyl octanoyl-D-asparaginyl-D-alaninate] (Octanoyl-[dN]-[dA]-OMe)	− (>75% compound remaining in the 20 μM WT ClbP reaction relative to the no-enzyme control)	–	++ (<25% compound remaining in the 20 μM WT ClbP reaction relative to the control)	++ (<25% compound remaining in the 20 μM WT ClbP reaction relative to the control)	particularly favorable difference
CCCCCCCC(=O)N[C@H](CC(N)=O)C(=O)N[C@H](C(=O)OC)C(C)C [Example 6, Methyl octanoyl-D-asparaginyl-L-valinate] (Octanoyl-[dN]-Val-OMe)	+ (between 25-75% compound remaining in the 20 μM WT ClbP reaction relative to the no-enzyme control)	–	++ (<25% compound remaining in the 20 μM WT ClbP reaction relative to the control)	++ (<25% compound remaining in the 20 μM WT ClbP reaction relative to the control)	–
CCCCCCCC(=O)N[C@H](CC(N)=O)C(=O)N[C@@H](CC(C)C)C(=O)OC [Example 7, Methyl octanoyl-D-asparaginyl-L-leucinate] (Octanoyl-[dN]-Leu-OMe)	+ (between 25-75% compound remaining in the 20 μM WT ClbP reaction relative to the no-enzyme control)	–	+ (between 25-75% compound remaining in the 20 μM WT ClbP reaction relative to the no-enzyme control)	++ (<25% compound remaining in the 20 μM WT ClbP reaction relative to the control)	–
CCCCCCCC(=O)N[C@H](CCC(=O)O)C(=O)N[C@@H](C)C(=O)OC [Example 9, (R)-5-(((S)-1-methoxy-1-oxopropan-2-yl)amino)-4-octanamido-5-oxopentanoic acid] (Octanoyl-[dE]-Ala-OMe)	− (>75% compound remaining in the 20 μM WT ClbP reaction relative to the no-enzyme control)	–	+ (between 25-75% compound remaining in the 20 μM WT ClbP reaction relative to the no-enzyme control)	− (>75% compound remaining in the 20 μM WT ClbP reaction relative to the no-enzyme control)	–
CCCCCCCC(=O)N[C@H](CCC(N)=O)C(=O)N[C@@H](C)C(=O)OC [Example 10, Methyl octanoyl-D-glutaminyl-L-alaninate] (Octanoyl-[dQ]-Ala-OMe)	+ (between 25-75% compound remaining in the 20 μM WT ClbP reaction relative to the no-enzyme control)	− (>75% compound remaining in the 20 μM WT ClbP reaction relative to the no-enzyme control)	+ (between 25-75% compound remaining in the 20 μM WT ClbP reaction relative to the no-enzyme control)	–	–
CCCCCCCCCCCCCC(=O)N[C@H](CC(N)=O)C(=O)N[C@@H](C)CCC(=O)O[C@]1(CC)C(=O)OCc2c1cc1n(c2=O)Cc2c-1nc1ccc(O)cc1c2CC [Example 35, (S)-4,11-diethyl-9-hydroxy-3,14-dioxo-3,4,12,14-tetrahydro-1H-pyrano[3′,4′:6,7]indolizino[1,2-b]quinolin-4-yl (S)-4-((R)-4-amino-4-oxo-2-tetradecanamidobutanamido)pentanoate]	− (>75% compound remaining in the 20 μM WT ClbP reaction relative to the no-enzyme control)	–	+ (between 25-75% compound remaining in the 20 μM WT ClbP reaction relative to the no-enzyme control)	–	particularly favorable difference
CCCCCCCC(=O)N[C@H](CC(N)=O)C(=O)NCCN(C)C(=O)Oc1ccc2c(C)cc(=O)oc2c1 [Example 70, 4-methyl-2-oxo-2H-chromen-7-yl (R)-(2-(4-amino-2-octanamido-4-oxobutanamido)ethyl)(methyl)carbamate]	− (>75% compound remaining in the 20 μM WT ClbP reaction relative to the no-enzyme control)	–	+ (between 25-75% compound remaining in the 20 μM WT ClbP reaction relative to the no-enzyme control)	–	particularly favorable difference
